Test in all cases: HotSpot kinase profiling
Format in all cases: biochemical

The target of one assay is T1, MKK6 (Homo sapiens, UniProt P52564).
T1 construct: purchased Reaction Biology Corp
T1 sequence (P52564 1-334): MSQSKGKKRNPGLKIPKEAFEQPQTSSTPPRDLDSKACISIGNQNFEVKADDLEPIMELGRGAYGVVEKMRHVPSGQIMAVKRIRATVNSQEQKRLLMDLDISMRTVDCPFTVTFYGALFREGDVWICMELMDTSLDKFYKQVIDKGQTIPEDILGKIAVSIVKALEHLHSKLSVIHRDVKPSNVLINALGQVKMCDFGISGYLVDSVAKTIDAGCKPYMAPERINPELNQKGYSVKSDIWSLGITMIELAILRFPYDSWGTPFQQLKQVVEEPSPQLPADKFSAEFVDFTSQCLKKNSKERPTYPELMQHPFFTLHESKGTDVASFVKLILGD
In short, it runs like this: (§1)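 Radiometric kinase assay with P81 filter capture; each kinase was added to fresh substrate plus cofactors in reaction buffer and incubated 2 h at room temperature. Unreacted phosphate was washed off with 0.1% phosphoric acid before detection; percent inhibition is relative to DMSO control, averaged over replicates.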

The next assay addresses T2, MLK1/MAP3K9 (Homo sapiens, UniProt P80192).
T2 construct: purchased Reaction Biology Corp
In short, it runs like this: as §1

The target in another assay is T3, STK22D/TSSK1 (Homo sapiens, UniProt Q9BXA7).
T3 construct: purchased Reaction Biology Corp
T3 sequence (Q9BXA7 1-367): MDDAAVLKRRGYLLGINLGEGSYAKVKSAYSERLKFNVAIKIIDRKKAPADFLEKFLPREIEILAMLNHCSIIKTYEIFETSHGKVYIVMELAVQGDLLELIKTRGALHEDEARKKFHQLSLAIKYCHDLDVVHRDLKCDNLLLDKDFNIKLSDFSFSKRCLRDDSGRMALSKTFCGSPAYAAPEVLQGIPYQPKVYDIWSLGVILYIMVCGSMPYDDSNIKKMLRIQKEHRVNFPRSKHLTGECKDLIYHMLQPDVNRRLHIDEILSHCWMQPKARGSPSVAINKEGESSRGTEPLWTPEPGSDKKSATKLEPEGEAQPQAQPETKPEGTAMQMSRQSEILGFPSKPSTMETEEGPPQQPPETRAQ
In short, it runs like this:
as §1

The next assay deals with T4, NEK4 (Homo sapiens, UniProt P51957).
T4 construct: purchased Reaction Biology Corp
Summed up: as §1

The next assay concerns the target T5, CTK/MATK (Homo sapiens, UniProt P42679).
T5 construct: purchased Reaction Biology Corp
T5 sequence (P42679 1-507): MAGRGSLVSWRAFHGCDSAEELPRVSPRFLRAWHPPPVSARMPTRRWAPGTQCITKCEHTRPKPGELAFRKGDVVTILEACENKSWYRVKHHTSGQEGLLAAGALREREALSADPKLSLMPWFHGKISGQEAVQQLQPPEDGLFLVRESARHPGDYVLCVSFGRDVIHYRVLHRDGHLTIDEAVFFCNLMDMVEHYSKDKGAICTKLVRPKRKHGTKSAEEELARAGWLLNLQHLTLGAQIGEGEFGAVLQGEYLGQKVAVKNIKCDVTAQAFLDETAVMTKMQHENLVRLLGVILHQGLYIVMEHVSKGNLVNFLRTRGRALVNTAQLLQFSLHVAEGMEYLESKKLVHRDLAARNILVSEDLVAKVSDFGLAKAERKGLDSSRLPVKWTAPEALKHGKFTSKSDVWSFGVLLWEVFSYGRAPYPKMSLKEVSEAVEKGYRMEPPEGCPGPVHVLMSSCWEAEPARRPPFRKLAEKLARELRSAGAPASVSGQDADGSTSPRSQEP
In short, it runs like this: as §1

Setting [1] is: read-out: % Enzyme Activity (relative to DMSO controls) Run 1.
The mark [2] stands for this setting: read-out: % Enzyme Activity (relative to DMSO controls) Run 2.

Like-named read-outs stand apart in the source and are kept apart here.

Here are results for one compound from patent publication US9492471B2, “Methods of treating a disease or disorder associated with Bruton'S Tyrosine Kinase” (Celgene Avilomics Research, Inc., priority 2013, dated 2016).

T2 sequence (P80192 whole entry): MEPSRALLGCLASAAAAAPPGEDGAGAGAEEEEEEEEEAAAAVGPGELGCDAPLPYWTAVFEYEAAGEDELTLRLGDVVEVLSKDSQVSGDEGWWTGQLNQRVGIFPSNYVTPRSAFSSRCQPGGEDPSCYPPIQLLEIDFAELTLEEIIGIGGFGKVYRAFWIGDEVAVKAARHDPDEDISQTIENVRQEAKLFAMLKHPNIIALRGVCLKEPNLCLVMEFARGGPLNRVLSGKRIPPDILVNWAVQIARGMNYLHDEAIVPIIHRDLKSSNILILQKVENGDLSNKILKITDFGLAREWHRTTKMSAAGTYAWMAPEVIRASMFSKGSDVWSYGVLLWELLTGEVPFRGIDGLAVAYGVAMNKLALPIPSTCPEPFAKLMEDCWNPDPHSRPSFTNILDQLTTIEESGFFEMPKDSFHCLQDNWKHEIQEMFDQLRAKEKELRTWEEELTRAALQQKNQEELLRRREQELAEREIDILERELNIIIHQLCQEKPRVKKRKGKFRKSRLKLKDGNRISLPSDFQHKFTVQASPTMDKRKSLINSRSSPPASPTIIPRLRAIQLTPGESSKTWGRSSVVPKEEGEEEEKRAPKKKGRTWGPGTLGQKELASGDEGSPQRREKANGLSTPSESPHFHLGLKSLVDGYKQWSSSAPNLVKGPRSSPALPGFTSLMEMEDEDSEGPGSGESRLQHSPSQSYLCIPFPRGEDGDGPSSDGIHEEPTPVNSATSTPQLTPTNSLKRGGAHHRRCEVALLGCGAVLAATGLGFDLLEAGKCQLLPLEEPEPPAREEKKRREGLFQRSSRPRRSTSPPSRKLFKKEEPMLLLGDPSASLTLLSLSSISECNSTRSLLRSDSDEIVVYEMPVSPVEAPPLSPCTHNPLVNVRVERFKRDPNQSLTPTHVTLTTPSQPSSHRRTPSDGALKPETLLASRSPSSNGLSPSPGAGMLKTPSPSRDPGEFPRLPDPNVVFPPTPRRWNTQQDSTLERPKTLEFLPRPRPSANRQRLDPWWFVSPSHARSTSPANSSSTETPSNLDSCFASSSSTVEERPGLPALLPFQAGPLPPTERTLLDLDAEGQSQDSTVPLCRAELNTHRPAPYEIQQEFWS
T4 sequence (P51957 whole entry): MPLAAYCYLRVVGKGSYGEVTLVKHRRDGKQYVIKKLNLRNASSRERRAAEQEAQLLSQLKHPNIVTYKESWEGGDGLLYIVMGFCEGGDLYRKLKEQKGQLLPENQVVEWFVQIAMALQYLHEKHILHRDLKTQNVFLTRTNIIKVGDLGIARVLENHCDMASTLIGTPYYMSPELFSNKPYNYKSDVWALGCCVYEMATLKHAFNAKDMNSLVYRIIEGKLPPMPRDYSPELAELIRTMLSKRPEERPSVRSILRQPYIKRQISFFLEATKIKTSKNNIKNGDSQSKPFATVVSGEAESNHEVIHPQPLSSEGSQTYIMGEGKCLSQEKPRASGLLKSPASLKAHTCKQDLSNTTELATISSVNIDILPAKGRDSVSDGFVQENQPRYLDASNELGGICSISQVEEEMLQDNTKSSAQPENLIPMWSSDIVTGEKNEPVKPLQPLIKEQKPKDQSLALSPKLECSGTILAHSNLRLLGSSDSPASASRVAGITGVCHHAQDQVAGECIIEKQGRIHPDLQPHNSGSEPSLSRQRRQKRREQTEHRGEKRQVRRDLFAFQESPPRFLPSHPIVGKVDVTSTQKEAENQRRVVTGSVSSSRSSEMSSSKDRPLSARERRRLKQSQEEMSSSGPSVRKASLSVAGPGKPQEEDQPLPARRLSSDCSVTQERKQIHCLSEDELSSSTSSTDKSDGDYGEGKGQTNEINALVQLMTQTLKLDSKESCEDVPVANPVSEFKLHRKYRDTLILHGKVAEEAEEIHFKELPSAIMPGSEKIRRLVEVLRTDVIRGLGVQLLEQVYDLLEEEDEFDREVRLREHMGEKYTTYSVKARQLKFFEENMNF

In general, inhibition refers to the drop in the measured response relative to a control, in per cent. Take `C=CC(=O)Nc1cccc(Nc2nc(Nc3ccc(OCCOC)c(F)c3)ncc2F)c1` [Compound 2]: the inhibition at 3 µM against MKK6 was 3.11%; against MLK1/MAP3K9, 85.7%; on STK22D/TSSK1, 11.1%; on NEK4, 13.5%; against CTK/MATK, -3.03%. In addition, the remaining activity at 3 µM at MKK6 (setting [1]) amounted to 96.4%; on MKK6 (setting [2]), 97.4%; on MLK1/MAP3K9 (setting [1]), 14.5%; at MLK1/MAP3K9 (setting [2]), 14.1%; at STK22D/TSSK1 (setting [1]) it was 88%; on STK22D/TSSK1 (setting [2]), 89.7%. The remaining activity at 3 µM at NEK4 (setting [1]) came to 84.6%; at NEK4 (setting [2]), 88.3%; at CTK/MATK (setting [1]), 102%; on CTK/MATK (setting [2]) it was 104%.
